Measurements taken from PubChem BioAssay AID1963832 (Molecular Pharmacology Branch, DTP, NCI, 2024).

Test system: 885724-159-R-J1-PDC complex spheroid viability
Test: Anticancer human tumor 885724-159-R-J1-PDC patient-derived pancreatic adenocarcinoma cell line growth inhibition [POLQ]
Conditions: for IC50: curve of first compound; for viability, T/C: stronger effect = lower value
In short: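 Patient-derived tumour cells were co-cultured with HUVEC and mesenchymal stem cells as multicellular spheroids at 37 °C. They were treated with POLQ inhibitors (novobiocin, ART-558, RP6685) alone or combined with other agents. Top concentrations were at or near clinical Cmax (otherwise 10 microM; SN-38 at 1 microM), decreasing in half-log steps.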

[1] = second compound 0.0316 µM, first compound 0.0316 µM
[2] = second compound 0.0316 µM, first compound 0.1 µM
[3] = second compound 0.0316 µM, first compound 0.316 µM
[4] = second compound 0.0316 µM, first compound 1 µM
[5] = second compound 0.0316 µM, first compound 3.16 µM
[6] = second compound 0.0316 µM, first compound 10 µM
[7] = second compound 0.1 µM, first compound 0.0316 µM
[8] = second compound 0.1 µM, first compound 0.1 µM
[9] = second compound 0.1 µM, first compound 0.316 µM
[10] = second compound 0.1 µM, first compound 1 µM
[11] = second compound 0.1 µM, first compound 3.16 µM
[12] = second compound 0.1 µM, first compound 10 µM
[13] = second compound 0.316 µM, first compound 0.0316 µM
[14] = second compound 0.316 µM, first compound 0.1 µM
[15] = second compound 0.316 µM, first compound 0.316 µM
[16] = second compound 0.316 µM, first compound 1 µM
[17] = second compound 0.316 µM, first compound 3.16 µM
[18] = second compound 0.316 µM, first compound 10 µM
[19] = second compound 1 µM, first compound 0.0316 µM
[20] = second compound 1 µM, first compound 0.1 µM
[21] = second compound 1 µM, first compound 0.316 µM
[22] = second compound 1 µM, first compound 1 µM
[23] = second compound 1 µM, first compound 3.16 µM
[24] = second compound 1 µM, first compound 10 µM
[25] = second compound 3.16 µM, first compound 0.0316 µM
[26] = second compound 3.16 µM, first compound 0.1 µM
[27] = second compound 3.16 µM, first compound 0.316 µM
[28] = second compound 3.16 µM, first compound 1 µM
[29] = second compound 3.16 µM, first compound 3.16 µM
[30] = second compound 3.16 µM, first compound 10 µM
[31] = second compound 10 µM, first compound 0.0316 µM
[32] = second compound 10 µM, first compound 0.1 µM
[33] = second compound 10 µM, first compound 0.316 µM
[34] = second compound 10 µM, first compound 1 µM
[35] = second compound 10 µM, first compound 3.16 µM
[36] = second compound 10 µM, first compound 10 µM
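Further: spheroids exposed to compounds for 7 days.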

Structure (SMILES): CC1COCCN1c1cc(-c2ccnn2C)c2ccnc(-c3ccn[nH]3)c2n1 (stereo not given) + Nc1ccc(C#CCN(C(=O)Cc2ncc(C(F)(F)F)cc2C(F)(F)F)c2ccc(F)cc2)nn1
- IC50 (second compound 0.0316 µM): 0.298 µM
- IC50 (second compound 0.1 µM): 0.275 µM
- IC50 (second compound 0.316 µM): 0.267 µM
- IC50 (second compound 1 µM): 0.178 µM
- IC50 (second compound 3.16 µM): 0.275 µM
- IC50 (second compound 10 µM): 0.458 µM
- viability, T/C [1]: 95.7%
- viability, T/C [2]: 60.6%
- viability, T/C [3]: 51%
- viability, T/C [4]: 43.9%
- viability, T/C [5]: 47.7%
- viability, T/C [6]: 44.4%
- viability, T/C [7]: 108%
- viability, T/C [8]: 60.8%
- viability, T/C [9]: 49.6%
- viability, T/C [10]: 48.1%
- viability, T/C [11]: 42.7%
- viability, T/C [12]: 39.5%
- viability, T/C [13]: 96.1%
- viability, T/C [14]: 58.4%
- viability, T/C [15]: 49.7%
- viability, T/C [16]: 47.5%
- viability, T/C [17]: 46.4%
- viability, T/C [18]: 39.1%
- viability, T/C [19]: 90%
- viability, T/C [20]: 52.3%
- viability, T/C [21]: 49%
- viability, T/C [22]: 47.5%
- viability, T/C [23]: 49.9%
- viability, T/C [24]: 38.4%
- viability, T/C [25]: 95.9%
- viability, T/C [26]: 61.5%
- viability, T/C [27]: 48.4%
- viability, T/C [28]: 45.2%
- viability, T/C [29]: 43.4%
- viability, T/C [30]: 43.8%
- viability, T/C [31]: 106%
- viability, T/C [32]: 64%
- viability, T/C [33]: 52.4%
- viability, T/C [34]: 49.3%
- viability, T/C [35]: 46.6%
- viability, T/C [36]: 42.5%

Structure (SMILES): O=C(Nc1ccc(O)c(NS(=O)(=O)c2ccc(F)cc2)c1)c1ccc(-c2ccccc2)cc1 + Cc1cccc(N(C)C(=O)C2C(O)CCN2c2nc(C)cc(C(F)(F)F)c2C#N)c1
- IC50 (second compound 0.0316 µM): > 10 µM
- IC50 (second compound 0.1 µM): > 10 µM
- IC50 (second compound 0.316 µM): > 10 µM
- IC50 (second compound 1 µM): > 10 µM
- IC50 (second compound 3.16 µM): > 10 µM
- IC50 (second compound 10 µM): > 10 µM
- viability, T/C [1]: 110%
- viability, T/C [2]: 92.4%
- viability, T/C [3]: 101%
- viability, T/C [4]: 102%
- viability, T/C [5]: 106%
- viability, T/C [6]: 102%
- viability, T/C [7]: 96.6%
- viability, T/C [8]: 103%
- viability, T/C [9]: 94.2%
- viability, T/C [10]: 107%
- viability, T/C [11]: 111%
- viability, T/C [12]: 117%
- viability, T/C [13]: 102%
- viability, T/C [14]: 92.3%
- viability, T/C [15]: 98.3%
- viability, T/C [16]: 101%
- viability, T/C [17]: 118%
- viability, T/C [18]: 108%
- viability, T/C [19]: 110%
- viability, T/C [20]: 91.2%
- viability, T/C [21]: 107%
- viability, T/C [22]: 106%
- viability, T/C [23]: 112%
- viability, T/C [24]: 111%
- viability, T/C [25]: 107%
- viability, T/C [26]: 90.1%
- viability, T/C [27]: 105%
- viability, T/C [28]: 104%
- viability, T/C [29]: 115%
- viability, T/C [30]: 107%
- viability, T/C [31]: 105%
- viability, T/C [32]: 102%
- viability, T/C [33]: 104%
- viability, T/C [34]: 108%
- viability, T/C [35]: 123%
- viability, T/C [36]: 101%

Structure (SMILES): COc1cccc2c1C(=O)c1c(O)c3c(c(O)c1C2=O)CC(O)(C(=O)CO)CC3OC1CC(N)C(O)C(C)O1 (stereo not given) + COC1C(OC(N)=O)C(O)C(Oc2ccc3c(O)c(NC(=O)c4ccc(O)c(CC=C(C)C)c4)c(=O)oc3c2C)OC1(C)C
- IC50 (second compound 0.0316 µM): 0.208 µM
- IC50 (second compound 0.1 µM): 0.204 µM
- IC50 (second compound 0.316 µM): 0.201 µM
- IC50 (second compound 1 µM): 0.192 µM
- IC50 (second compound 3.16 µM): 0.197 µM
- IC50 (second compound 10 µM): 0.196 µM
- viability, T/C [1]: 71.6%
- viability, T/C [2]: 91.5%
- viability, T/C [3]: 31.9%
- viability, T/C [4]: 11.6%
- viability, T/C [5]: 6%
- viability, T/C [6]: 7.47%
- viability, T/C [7]: 71%
- viability, T/C [8]: 89.4%
- viability, T/C [9]: 31.5%
- viability, T/C [10]: 10.3%
- viability, T/C [11]: 5.36%
- viability, T/C [12]: 7.37%
- viability, T/C [13]: 71%
- viability, T/C [14]: 93.2%
- viability, T/C [15]: 29%
- viability, T/C [16]: 9.53%
- viability, T/C [17]: 5.31%
- viability, T/C [18]: 7.84%
- viability, T/C [19]: 65%
- viability, T/C [20]: 90.5%
- viability, T/C [21]: 28.9%
- viability, T/C [22]: 10.3%
- viability, T/C [23]: 5.98%
- viability, T/C [24]: 7.87%
- viability, T/C [25]: 69.5%
- viability, T/C [26]: 92%
- viability, T/C [27]: 28.7%
- viability, T/C [28]: 7.45%
- viability, T/C [29]: 6%
- viability, T/C [30]: 7.69%
- viability, T/C [31]: 64.2%
- viability, T/C [32]: 85.7%
- viability, T/C [33]: 32.2%
- viability, T/C [34]: 7.9%
- viability, T/C [35]: 6.39%
- viability, T/C [36]: 7.8%

Structure (SMILES): COc1ccc([C@@H](O)c2cc(-c3ncnc4cc(N5CCOCC5)ccc34)c(F)cc2Cl)nn1 + Nc1ccc(C#CCN(C(=O)Cc2ncc(C(F)(F)F)cc2C(F)(F)F)c2ccc(F)cc2)nn1
- IC50 (second compound 0.0316 µM): 3.7 µM
- IC50 (second compound 0.1 µM): 3.83 µM
- IC50 (second compound 0.316 µM): 4.24 µM
- IC50 (second compound 1 µM): 4.29 µM
- IC50 (second compound 3.16 µM): 3.94 µM
- IC50 (second compound 10 µM): 4.85 µM
- viability, T/C [1]: 83.2%
- viability, T/C [2]: 105%
- viability, T/C [3]: 73.6%
- viability, T/C [4]: 74.9%
- viability, T/C [5]: 52.3%
- viability, T/C [6]: 33.1%
- viability, T/C [7]: 100%
- viability, T/C [8]: 89.6%
- viability, T/C [9]: 84.4%
- viability, T/C [10]: 75.1%
- viability, T/C [11]: 51%
- viability, T/C [12]: 32.9%
- viability, T/C [13]: 98.7%
- viability, T/C [14]: 103%
- viability, T/C [15]: 86%
- viability, T/C [16]: 73%
- viability, T/C [17]: 57.5%
- viability, T/C [18]: 32.8%
- viability, T/C [19]: 92.8%
- viability, T/C [20]: 86.3%
- viability, T/C [21]: 81.5%
- viability, T/C [22]: 69.5%
- viability, T/C [23]: 57.5%
- viability, T/C [24]: 33.3%
- viability, T/C [25]: 91.5%
- viability, T/C [26]: 93.9%
- viability, T/C [27]: 82.9%
- viability, T/C [28]: 67.8%
- viability, T/C [29]: 56%
- viability, T/C [30]: 33.5%
- viability, T/C [31]: 96.7%
- viability, T/C [32]: 89.4%
- viability, T/C [33]: 87.4%
- viability, T/C [34]: 70.6%
- viability, T/C [35]: 59.1%
- viability, T/C [36]: 36.6%

Structure (SMILES): C=CC(=O)N1CCN(c2nc(=O)n(-c3c(C)ccnc3C(C)C)c3nc(-c4c(O)cccc4F)c(F)cc23)C(C)C1 (stereo not given) + Nc1ccc(C#CCN(C(=O)Cc2ncc(C(F)(F)F)cc2C(F)(F)F)c2ccc(F)cc2)nn1
- IC50 (second compound 0.0316 µM): > 10 µM
- IC50 (second compound 0.1 µM): > 10 µM
- IC50 (second compound 0.316 µM): > 10 µM
- IC50 (second compound 1 µM): > 10 µM
- IC50 (second compound 3.16 µM): > 10 µM
- IC50 (second compound 10 µM): > 10 µM
- viability, T/C [1]: 96.3%
- viability, T/C [2]: 86%
- viability, T/C [3]: 101%
- viability, T/C [4]: 106%
- viability, T/C [5]: 103%
- viability, T/C [6]: 98.6%
- viability, T/C [7]: 108%
- viability, T/C [8]: 112%
- viability, T/C [9]: 110%
- viability, T/C [10]: 102%
- viability, T/C [11]: 122%
- viability, T/C [12]: 94%
- viability, T/C [13]: 96.5%
- viability, T/C [14]: 102%
- viability, T/C [15]: 105%
- viability, T/C [16]: 102%
- viability, T/C [17]: 110%
- viability, T/C [18]: 90.4%
- viability, T/C [19]: 96.4%
- viability, T/C [20]: 87.5%
- viability, T/C [21]: 93.2%
- viability, T/C [22]: 109%
- viability, T/C [23]: 110%
- viability, T/C [24]: 97.3%
- viability, T/C [25]: 96.9%
- viability, T/C [26]: 92.9%
- viability, T/C [27]: 98.4%
- viability, T/C [28]: 100%
- viability, T/C [29]: 117%
- viability, T/C [30]: 83.6%
- viability, T/C [31]: 95.7%
- viability, T/C [32]: 104%
- viability, T/C [33]: 98.6%
- viability, T/C [34]: 111%
- viability, T/C [35]: 97.5%
- viability, T/C [36]: 91.1%
